# In US20250361230A1, “LATS Inhibitors and Uses Thereof” (The USA, as Represented by the Secretary, Dept. of Heath …, priority 2022, published 2025):
# Where two headings read alike, the source gives them in different places.
# Experiments:
# Type in all cases: biochemical
# AKT = AKT (Homo sapiens, UniProt P31749); test: RBC HotSpot kinase assay (33P-ATP, P81 filter-binding), AKT; conditions: read-out: AKT IC50
# In short: (§1)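 Kinase in Hepes pH 7.5 buffer with Mg2+, EGTA, Brij35, BSA, vanadate, DTT and 1% DMSO, plus required cofactors and substrate, was preincubated 20 min at room temperature with compound. Reaction was started with 33P-ATP and run 2 h, then detected by P81 filter binding. IC50 (nM) came from 10-point singlet curves.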
# LATS2 = biological target: T1, LATS2 (Homo sapiens, UniProt Q9NRM7); test: RBC HotSpot kinase assay (33P-ATP, P81 filter-binding), LATS2; conditions: read-out: LATS2 IC50
# T1 sequence (Q9NRM7 1-1088): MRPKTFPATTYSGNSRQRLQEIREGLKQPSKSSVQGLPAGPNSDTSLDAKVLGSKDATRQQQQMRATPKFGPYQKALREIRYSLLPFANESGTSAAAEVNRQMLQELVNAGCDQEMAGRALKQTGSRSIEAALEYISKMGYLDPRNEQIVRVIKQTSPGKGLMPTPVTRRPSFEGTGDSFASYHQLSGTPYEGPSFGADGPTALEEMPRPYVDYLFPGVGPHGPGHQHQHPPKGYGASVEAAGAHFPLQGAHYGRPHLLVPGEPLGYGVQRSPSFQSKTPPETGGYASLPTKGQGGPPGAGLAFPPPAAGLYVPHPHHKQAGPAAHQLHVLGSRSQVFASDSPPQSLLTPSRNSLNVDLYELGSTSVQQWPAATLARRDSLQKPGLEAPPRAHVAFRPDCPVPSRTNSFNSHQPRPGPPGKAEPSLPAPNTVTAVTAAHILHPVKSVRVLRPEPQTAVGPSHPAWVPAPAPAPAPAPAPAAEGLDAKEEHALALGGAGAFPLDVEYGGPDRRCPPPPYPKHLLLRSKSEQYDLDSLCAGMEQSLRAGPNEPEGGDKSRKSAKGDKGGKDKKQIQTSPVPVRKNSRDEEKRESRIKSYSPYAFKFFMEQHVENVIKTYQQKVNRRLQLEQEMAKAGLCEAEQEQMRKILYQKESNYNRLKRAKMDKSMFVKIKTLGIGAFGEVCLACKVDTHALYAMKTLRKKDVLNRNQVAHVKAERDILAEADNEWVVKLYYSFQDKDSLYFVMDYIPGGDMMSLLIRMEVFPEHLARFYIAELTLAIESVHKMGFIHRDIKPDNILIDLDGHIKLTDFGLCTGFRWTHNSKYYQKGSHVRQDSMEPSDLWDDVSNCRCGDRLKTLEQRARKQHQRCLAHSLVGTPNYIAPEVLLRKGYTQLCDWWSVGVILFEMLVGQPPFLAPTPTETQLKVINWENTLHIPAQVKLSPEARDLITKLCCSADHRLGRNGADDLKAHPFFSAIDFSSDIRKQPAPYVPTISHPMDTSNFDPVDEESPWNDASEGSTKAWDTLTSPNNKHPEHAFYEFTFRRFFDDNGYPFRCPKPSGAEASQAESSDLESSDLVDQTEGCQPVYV
# In short: as §1
# LATS1 = biological target: T2, LATS1 (Homo sapiens, UniProt O95835); test: RBC HotSpot kinase assay (33P-ATP, P81 filter-binding), LATS1; conditions: read-out: LATS1 IC50
# T2 sequence (O95835 1-1130): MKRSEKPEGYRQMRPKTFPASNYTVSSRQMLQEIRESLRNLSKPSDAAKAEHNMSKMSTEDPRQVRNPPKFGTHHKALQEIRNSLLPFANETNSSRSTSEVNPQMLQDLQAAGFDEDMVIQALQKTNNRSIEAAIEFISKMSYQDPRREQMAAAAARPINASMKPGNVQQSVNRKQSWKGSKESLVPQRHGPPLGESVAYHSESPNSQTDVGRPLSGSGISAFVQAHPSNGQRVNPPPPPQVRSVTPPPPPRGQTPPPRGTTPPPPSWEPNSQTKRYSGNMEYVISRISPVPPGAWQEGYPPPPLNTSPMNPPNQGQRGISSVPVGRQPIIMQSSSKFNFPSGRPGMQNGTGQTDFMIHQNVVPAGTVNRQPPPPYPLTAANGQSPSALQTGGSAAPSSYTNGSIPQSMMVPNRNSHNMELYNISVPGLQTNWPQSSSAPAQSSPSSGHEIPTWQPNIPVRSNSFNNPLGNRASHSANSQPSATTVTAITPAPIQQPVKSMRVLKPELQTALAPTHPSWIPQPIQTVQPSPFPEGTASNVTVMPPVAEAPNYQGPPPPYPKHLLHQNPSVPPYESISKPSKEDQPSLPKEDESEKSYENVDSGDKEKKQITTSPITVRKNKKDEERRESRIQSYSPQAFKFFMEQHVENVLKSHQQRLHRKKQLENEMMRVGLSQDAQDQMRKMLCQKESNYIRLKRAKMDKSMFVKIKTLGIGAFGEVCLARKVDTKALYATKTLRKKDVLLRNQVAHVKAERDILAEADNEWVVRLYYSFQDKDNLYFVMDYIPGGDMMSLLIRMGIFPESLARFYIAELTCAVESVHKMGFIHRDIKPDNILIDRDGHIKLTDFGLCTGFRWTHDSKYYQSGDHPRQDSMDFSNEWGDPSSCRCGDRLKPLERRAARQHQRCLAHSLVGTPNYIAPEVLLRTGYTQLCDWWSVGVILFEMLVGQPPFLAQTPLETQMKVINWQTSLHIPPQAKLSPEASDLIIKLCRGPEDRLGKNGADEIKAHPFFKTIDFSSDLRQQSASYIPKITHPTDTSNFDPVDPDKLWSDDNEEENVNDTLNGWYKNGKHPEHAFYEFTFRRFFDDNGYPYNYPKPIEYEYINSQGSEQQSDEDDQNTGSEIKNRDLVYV
# In short: as §1
# [1] = Table 28, biochemical kinase assay
# [2] = Table 32, biochemical kinase assay
# Sequence of AKT (P31749 whole entry): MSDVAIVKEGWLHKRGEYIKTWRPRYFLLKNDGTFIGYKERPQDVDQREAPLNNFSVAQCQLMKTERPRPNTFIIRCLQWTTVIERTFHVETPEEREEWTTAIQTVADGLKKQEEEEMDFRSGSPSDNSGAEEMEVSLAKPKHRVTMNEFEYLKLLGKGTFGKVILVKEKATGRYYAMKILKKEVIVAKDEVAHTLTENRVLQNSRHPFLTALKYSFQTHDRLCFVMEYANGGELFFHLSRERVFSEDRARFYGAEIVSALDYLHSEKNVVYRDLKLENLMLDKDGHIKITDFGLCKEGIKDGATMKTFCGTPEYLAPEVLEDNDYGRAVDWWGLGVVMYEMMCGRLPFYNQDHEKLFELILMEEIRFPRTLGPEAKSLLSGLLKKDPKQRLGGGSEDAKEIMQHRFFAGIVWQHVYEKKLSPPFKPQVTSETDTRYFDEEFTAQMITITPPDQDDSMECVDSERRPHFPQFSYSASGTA
IC50 (AKT; [1]),IC50 (LATS2; [1]),IC50 (LATS1; [1]),IC50 (AKT; [2]),IC50 (LATS2; [2]),IC50 (LATS1; [2]),Compound
,,,126 nM,8.4 nM,8.5 nM,"NCC(O)(c1ccc(Cl)cc1)c1ccc(-c2ccnc3[nH]cc(-c4ccccc4)c23)nc1 (stereo not drawn) [Compound 1012, 2-amino-1-(4-chlorophenyl)-1-(6-(3-phenyl-1H-pyrrolo[2,3-b]pyridin-4-yl)pyridin-3-yl) ethan-1-ol]"
,,,17.2 nM,5.1 nM,3.7 nM,"CC(=O)NCC(O)(c1ccc(Cl)cc1)c1ccc(-c2ccnc3[nH]ccc23)cc1 (stereo not drawn) [Compound 1014, N-(2-(4-(1H-pyrrolo[2,3-b]pyridin-4-yl)phenyl)-2-(4-chlorophenyl)-2-hydroxyethyl)acetamide]"
,,,5.9 nM,3.7 nM,4 nM,"O=C(CO)NCC(O)(c1ccc(Cl)cc1)c1ccc(-c2ccnc3[nH]ccc23)cc1 (stereo not drawn) [Compound 1015, N-(2-(4-(1H-pyrrolo[2,3-b]pyridin-4-yl)phenyl)-2-(4-chlorophenyl)-2-hydroxyethyl)-2-hydroxyacetamide]"
,,,7.4 nM,4 nM,7 nM,"O=C(CO)NCC(O)(c1ccc(Cl)cc1)c1ccc(-c2ccnc3[nH]cc(F)c23)cc1 (stereo not drawn) [Compound 1016, N-(2-(4-chlorophenyl)-2-(4-(3-fluoro-1H-pyrrolo[2,3-b]pyridin-4-yl)phenyl)-2-hydroxyethyl)-2-hydroxyacetamide]"
,,,2.8 nM,2.8 nM,5.4 nM,"O=C(CO)NCC(O)(c1ccc(Cl)cc1)c1ccc(-c2ccnc3[nH]cc(Cl)c23)cc1 (stereo not drawn) [Compound 1017, N-(2-(4-(3-chloro-1H-pyrrolo[2,3-b]pyridin-4-y1)phenyl)-2-(4-chlorophenyl)-2-hydroxyethyl)-2-hydroxyacetamide]"
,,,73.6 nM,10.1 nM,18.7 nM,"CC(C)(O)C(=O)NCC(O)(c1ccc(Cl)cc1)c1ccc(-c2ccnc3[nH]ccc23)cc1 (stereo not drawn) [Compound 1018, N-(2-(4-(1H-pyrrolo[2,3-b]pyridin-4-yl)phenyl)-2-(4-chlorophenyl)-2-hydroxyethyl)-2-hydroxy-2-methylpropanamide]"
,,,5.4 nM,5.6 nM,4 nM,"CN(C)CC(=O)NCC(O)(c1ccc(Cl)cc1)c1ccc(-c2ccnc3[nH]ccc23)cc1 (stereo not drawn) [Compound 1019, N-(2-(4-(1H-pyrrolo[2,3-b]pyridin-4-yl)phenyl)-2-(4-chlorophenyl)-2-hydroxyethyl)-2-(dimethylamino) acetamide]"

# The next lines start with the compound.
Compound,IC50 (AKT; [1]),IC50 (LATS2; [1]),IC50 (LATS1; [1]),IC50 (AKT; [2]),IC50 (LATS2; [2]),IC50 (LATS1; [2])
"Cc1cc(-c2ccnc3[nH]ccc23)cc(F)c1[C@@]1(O)[C@H](C)CN(C2CCS(=O)(=O)CC2)C[C@@H]1C [Compound 308, 4-((3S,4s,5R)-4-(2-fluoro-6-methyl-4-(1H-pyrrolo[2,3-b]pyridin-4-yl)phenyl)-4-hydroxy-3,5-dimethylpiperidin-1-yl)tetrahydro-2H-thiopyran 1,1-dioxide]",1090 nM,8.4 nM,10 nM,,,
"COC(=O)c1c[nH]c2nccc(-c3ccc([C@@]4(O)[C@H](C)CN(C(=O)CN)C[C@@H]4C)c(C)c3)c12 [Compound 311, methyl 4-(4-((3S,4s,5R)-1-glycyl-4-hydroxy-3,5-dimethylpiperidin-4-yl)-3-methylphenyl)-1H-pyrrolo[2,3-b]pyridine-3-carboxylate]",1040 nM,3.6 nM,6.9 nM,,,
"Cc1cc(-c2ccnc3[nH]cc(C)c23)cc(F)c1[C@@]1(O)[C@H](C)CN(C(=O)CN)C[C@@H]1C [Compound 314, 2-amino-1-((3S,4s,5R)-4-(2-fluoro-6-methyl-4-(3-methyl-1H-pyrrolo[2,3-b]pyridin-4-yl)phenyl)-4-hydroxy-3,5-dimethylpiperidin-1-yl)ethan-1-one]",249 nM,4.8 nM,1.6 nM,,,
"CN[C@@H](C)C(=O)N1C[C@@H](C)[C@](O)(c2c(C)cc(-c3ccnc4[nH]cc(F)c34)cc2F)[C@@H](C)C1 [Compound 315, (S)-1-((3S,4R,5R)-4-(2-fluoro-4-(3-fluoro-1H-pyrrolo[2,3-b]pyridin-4-yl)-6-methylphenyl)-4-hydroxy-3,5-dimethylpiperidin-1-yl)-2-(methylamino) propan-1-one]",1350 nM,5.7 nM,11.6 nM,,,
"CN[C@H](C)C(=O)N1C[C@@H](C)[C@](O)(c2c(C)cc(-c3ccnc4[nH]cc(F)c34)cc2F)[C@@H](C)C1 [Compound 316, (R)-1-((3S,4S,5R)-4-(2-fluoro-4-(3-fluoro-1H-pyrrolo[2,3-b]pyridin-4-yl)-6-methylphenyl)-4-hydroxy-3,5-dimethylpiperidin-1-yl)-2-(methylamino) propan-1-one]",1370 nM,6.8 nM,12 nM,,,
"Cc1cc(-c2ccnc3[nH]cc(Cl)c23)cc(F)c1[C@@]1(O)[C@H](C)CN(C(=O)CN)C[C@@H]1C [Compound 317, 2-amino-1-((3S,4s,5R)-4-(4-(3-chloro-1H-pyrrolo[2,3-b]pyridin-4-yl)-2-fluoro-6-methylphenyl)-4-hydroxy-3,5-dimethylpiperidin-1-yl)ethan-1-one]",186 nM,3.8 nM,7.6 nM,,,
"Cc1cc(-c2ccnc3[nH]cc(-c4cccnc4)c23)cc(F)c1[C@@]1(O)[C@H](C)CN(C(=O)CN)C[C@@H]1C [Compound 318, 2-amino-1-((3S,4s,5R)-4-(2-fluoro-6-methyl-4-(3-(pyridin-3-yl)-1H-pyrrolo[2,3-b]pyridin-4-yl)phenyl)-4-hydroxy-3,5-dimethylpiperidin-1-yl)ethan-1-one]",1420 nM,1.3 nM,4.1 nM,,,
"NCC(O)(c1ccc(Cl)cc1)c1ccc(-c2ccnc3[nH]cc(Cl)c23)cc1 (stereo not drawn) [Compound 1003, 2-amino-1-(4-(3-chloro-1H-pyrrolo[2,3-b]pyridin-4-yl)phenyl)-1-(4-chlorophenyl) ethan-1-ol]",,,,3.2 nM,12 nM,31.7 nM
"NCC(O)(c1ccc(Cl)cc1)c1ccc(-c2ccnc3[nH]cc(Cl)c23)nc1 (stereo not drawn) [Compound 1010, 2-amino-1-(6-(3-chloro-1H-pyrrolo[2,3-b]pyridin-4-yl)pyridin-3-yl)-1-(4-chlorophenyl)ethan-1-ol]",,,,< 0.5 nM,< 0.5 nM,0.5 nM
